These are literature values, as cited in patent US20240148758A1, “CONTROLLED RELEASE FORMULATIONS OF HIGHLY LIPOPHILIC PHYSIOLOGICALLY ACTIVE SUBSTANCES” (ADD Advanced Drug Delivery Technologies Ltd., priority 2019, published 2024).

For this data set the following is noted: decimal logarithm of the n-octanol/water partition coefficient.

`C=C(C)[C@@H]1CCC(C)=C[C@H]1c1c(O)cc(CCCCC)cc1O` [Canapure PH, 2-[1R-3-methyl-6R-(1-methylethenyl)-2-cyclohexen-1-yl]-5-pentyl-1,3-benzenediol]: the “log P” value is given as “about 6.1”.
